Assay results as given in US20150258192A1, “COMPOSITIONS AND METHODS FOR PREVENTING OR TREATING CHRONIC LUNG ALLOGRAFT DYSFUNCTION (CLAD) AND IDIOPATHIC PULMONARY FIBROSIS (IPF)” (priority 2014, published 2015).
No end group written: not given here.

Tests used:
CK1γ2(h) = CK1γ2(h) (Homo sapiens, UniProt P78368); experiment: Kinase Profiling Assay; assay type: biochemical; settings: peptide 100 μM
In short: (§1)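 Radiometric filter-binding format: cationic substrate takes up labeled phosphate from ATP unless the inhibitor peptide blocks the kinase. Substrate bound to an anionic filter, scintillation-counted, normalized to 100% activity control. Duplicates; part of a 266-kinase selectivity panel for MK2 peptides.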

c-RAF(h) = c-RAF(h) (Homo sapiens, UniProt P04049); experiment: Kinase Profiling Assay; assay type: biochemical; settings: peptide 100 μM
In short: as §1

PAK6(h) = PAK6(h) (Homo sapiens, UniProt Q9NQU5); experiment: Kinase Profiling Assay; assay type: biochemical; settings: peptide 100 μM
Sequence of PAK6(h) (Q9NQU5 whole entry): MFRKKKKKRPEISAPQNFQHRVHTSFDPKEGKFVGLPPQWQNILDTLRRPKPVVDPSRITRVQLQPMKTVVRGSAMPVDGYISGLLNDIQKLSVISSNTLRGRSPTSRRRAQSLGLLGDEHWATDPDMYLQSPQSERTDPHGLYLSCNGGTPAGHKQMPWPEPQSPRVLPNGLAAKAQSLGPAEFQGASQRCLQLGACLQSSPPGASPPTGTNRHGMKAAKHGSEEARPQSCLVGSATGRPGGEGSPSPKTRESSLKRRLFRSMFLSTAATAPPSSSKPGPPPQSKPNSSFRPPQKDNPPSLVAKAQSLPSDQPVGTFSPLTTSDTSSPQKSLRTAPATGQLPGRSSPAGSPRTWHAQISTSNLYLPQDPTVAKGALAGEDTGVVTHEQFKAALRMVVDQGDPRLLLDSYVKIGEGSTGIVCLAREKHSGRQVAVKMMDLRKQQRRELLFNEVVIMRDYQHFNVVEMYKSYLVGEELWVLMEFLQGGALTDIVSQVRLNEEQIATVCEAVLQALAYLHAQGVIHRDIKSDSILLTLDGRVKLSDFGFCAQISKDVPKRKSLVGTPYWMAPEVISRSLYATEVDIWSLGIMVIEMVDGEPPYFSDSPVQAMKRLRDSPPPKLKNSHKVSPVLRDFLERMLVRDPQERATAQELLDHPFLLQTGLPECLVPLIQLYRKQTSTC
In short: as §1

FGFR2(N549H)(h) = FGFR2(N549H)(h) (Homo sapiens, UniProt P21802, N549H); experiment: Kinase Profiling Assay; assay type: biochemical; settings: peptide 100 μM
Sequence of FGFR2(N549H)(h) (P21802 22-821 N549H): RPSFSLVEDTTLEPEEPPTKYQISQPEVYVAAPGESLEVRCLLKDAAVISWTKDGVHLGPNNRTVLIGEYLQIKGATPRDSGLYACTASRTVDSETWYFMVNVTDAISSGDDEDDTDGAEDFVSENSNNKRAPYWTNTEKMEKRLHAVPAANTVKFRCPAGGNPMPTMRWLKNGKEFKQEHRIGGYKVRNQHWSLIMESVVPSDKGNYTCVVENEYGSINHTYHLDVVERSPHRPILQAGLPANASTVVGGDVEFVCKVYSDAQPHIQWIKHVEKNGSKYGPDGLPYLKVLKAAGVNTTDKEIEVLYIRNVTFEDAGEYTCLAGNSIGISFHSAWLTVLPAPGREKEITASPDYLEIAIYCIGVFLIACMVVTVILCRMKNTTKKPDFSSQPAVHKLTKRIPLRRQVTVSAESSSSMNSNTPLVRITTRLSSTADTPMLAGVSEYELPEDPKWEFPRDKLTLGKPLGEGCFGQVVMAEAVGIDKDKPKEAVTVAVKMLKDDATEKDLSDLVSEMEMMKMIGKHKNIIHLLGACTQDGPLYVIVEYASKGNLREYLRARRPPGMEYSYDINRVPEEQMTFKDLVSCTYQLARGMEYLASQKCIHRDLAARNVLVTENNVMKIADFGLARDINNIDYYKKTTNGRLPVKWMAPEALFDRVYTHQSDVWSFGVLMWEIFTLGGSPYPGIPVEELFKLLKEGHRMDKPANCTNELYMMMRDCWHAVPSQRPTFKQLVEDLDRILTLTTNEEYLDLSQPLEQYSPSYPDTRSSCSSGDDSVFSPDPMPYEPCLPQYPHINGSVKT
In short: as §1

[1] = system: bleomycin-induced lung fibrosis in C57BL/6 mice; experiment: Bleomycin mouse model of pulmonary fibrosis (IPF prevention model); assay type: in vivo; settings: for collagen levels in the lung (Masson's blue trichrome), dose-response: 25, 50 or 75 μg/kg daily IP, day 7-21; for collagen accumulation in the lungs (Masson's Trichrome staining) / development of fibrotic loci formation (H&E staining): daily day 7-21 post bleomycin; for total collagen deposition (from hydroxyproline) vs bleomycin control: post-inflammatory/pre-fibrotic stage
Protocol: A mouse model of pulmonary fibrosis was generated by administering 0.025 U of bleomycin/PBS intratracheally to C57BL/6 mice. […] At 21 day post bleomycin delivery (for prevention model) or 28 post bleomycin delivery (for treatment model), groups of mice were sacrificed with a sodium pentobarbital injection (120 mg/kg) and the chest cavity was opened. The right mainstem bronchus was ligated and the right lung was removed. The trachea was cannulated and the left lung was perfused with 4% formaldehyde at 21 cm H2O pressure. The tissue blocks then were embedded in paraffin, and […] sections were prepared for staining. Sections from each animal were stained with hematoxylin and eosin (H&E) to visualize cells or with Masson's Trichrome staining to highlight collagen deposition. […] Stained sections were mounted onto a labeled glass slide with organic mounting medium.
Briefly, fibrotic loci in the lungs of the mice were induced by delivering intratracheally about 0.025 U of bleomycin (dissolved in PBS) to C57BL/6 mice. […] Briefly, mice were sacrificed with a sodium pentobarbital injection (120 mg/kg) and the chest cavity was opened. The right mainstem bronchus was ligated and the right lung was removed. The trachea was cannulated and the left lung was perfused with 4% formaldehyde at 21 cm H2O pressure. The tissue blocks then were embedded in paraffin, and […] sections were prepared, and stained with hematoxylin and eosin (H&E; for pathological examination) or Masson's Trichrome (for collagen staining)
Next, total collagen levels in the lungs of the bleomycin-injured mice (FIG. 12) were analyzed quantitatively by computing a constant conversion factor (7.5) for collagen from hydroxyproline concentrations (Neuman R. and Logan M, J Biol Chem., 186(2):549-56, 1950, incorporated by reference).
Next, the effect of increasing doses of MK2 peptide inhibitors on collagen deposition was examined in vivo using the bleomycin mouse model of idiopathic pulmonary fibrosis (prevention model). Briefly, C57-BL/6 mice were subjected to bleomycin injury at day 0.

splenic T cells = experiment: Autologous mixed lymphocyte reaction (MLR) of splenic T cells from treated bleomycin mice; assay type: in vivo, mouse
From the text: Recent studies highlighted a key role for T lymphocytes in bleomycin-induced fibrosis (Wilson, M. et al., The Journal of Experimental Medicine, 207(3): 535-552, 2010). […] Specifically, the ability of C57BL/6 purified antigen-presenting cells to induce proliferation in C57BL/6 T lymphocytes was examined in the assay.
C57-BL/6 mice were subjected to bleomycin injury at day 0. […] Splenic T cells were isolated and cultured alone or in the presence of autologous antigen presenting cells (APCs from C57-BL/6 mice) or stimulated with antibodies against CD3 (α-CD3) for 48 h. The cells then were radiolabeled with […] thymidine for 16 h and assessed for proliferation rates.
The viability of the T cells also was confirmed by stimulating the cells with antibodies against α-CD3, a polyclonal T cell activator. α-CD3 induced robust proliferation of the cells irrespective of the treatment group.

[2] = system: alpha-smooth muscle actin (α-SMA); experiment: α-SMA immunostaining of lung sections, bleomycin treatment model; assay type: in vivo, mouse; settings: 50 μg/kg/day IP or nebulizer, day 14-28
From the text: C57-BL/6 mice were subjected to bleomycin injury at day 0. […] Formalin-fixed lung tissue sections were immunostained against α-SMA. Control staining was with biotinylated secondary IgG antibody. Streptavidin-conjugated horseradish peroxidase was used with 3,3′-diaminobenzidene as substrate and nuclei was counterstained with hematoxylin. Original magnifications: 20×

[3] = system: normal human fetal lung fibroblasts (IMR-90); experiment: TGF-β-induced myofibroblast activation (α-SMA immunoblot); assay type: cell-based; settings: pre-treated 1 h, TGF-β1 (2 ng/ml) 48 h
From the text: Cell lysates were immunoblotted against antibodies for α-SMA (a marker for myofibroblast activation) and GAPDH (loading control).

[4] = system: primary lung fibroblasts from patients with IPF; experiment: Matrigel invasion assay, human IPF fibroblasts; assay type: cell-based; settings: MK2i treatment
Protocol: Fibroblasts are critical effector cells in mediating tissue remodeling. […] We have developed a novel model of progressive lung fibrosis based on a cancer metastasis model. […] We hypothesized that fibrotic fibroblasts acquire an invasive phenotype that is essential for progressive fibrogenesis and that CD44 has a critical role in regulating the process. We utilized an assay system in which fibroblasts are evaluated for their ability to spontaneously invade Matrigel, a composite matrix with basement membrane constituents. This assay has been used to analyze the metastatic potential of cancer cells (40).
We have hypothesized that the essential feature of IPF is the development of an invasive fibroblast phenotype that has developed a gene program that facilitates matrix invasion. To determine if the data obtained from the ASMA-HAS2 transgenic mouse model of severe, progressive and destructive fibrosis is relevant to human lung fibrosis, we isolated primary lung fibroblasts from patients with IPF and analyzed their invasive capacity. We found a striking increase in the invasive capacity of IPF fibroblasts compared to fibroblasts isolated from normal lung tissue (FIG. 34).

[5] = system: fibroblasts from bleomycin treated murine hyaluronan synthase 2 (mHAS2) lung; experiment: HA production of fibroblasts; assay type: cell-based, mouse
CK1γ1(h) = CK1γ1(h) (Homo sapiens, UniProt Q9HCP0); experiment: Kinase Profiling Assay; assay type: biochemical; settings: peptide 100 μM
Sequence of CK1γ1(h) (Q9HCP0 whole entry): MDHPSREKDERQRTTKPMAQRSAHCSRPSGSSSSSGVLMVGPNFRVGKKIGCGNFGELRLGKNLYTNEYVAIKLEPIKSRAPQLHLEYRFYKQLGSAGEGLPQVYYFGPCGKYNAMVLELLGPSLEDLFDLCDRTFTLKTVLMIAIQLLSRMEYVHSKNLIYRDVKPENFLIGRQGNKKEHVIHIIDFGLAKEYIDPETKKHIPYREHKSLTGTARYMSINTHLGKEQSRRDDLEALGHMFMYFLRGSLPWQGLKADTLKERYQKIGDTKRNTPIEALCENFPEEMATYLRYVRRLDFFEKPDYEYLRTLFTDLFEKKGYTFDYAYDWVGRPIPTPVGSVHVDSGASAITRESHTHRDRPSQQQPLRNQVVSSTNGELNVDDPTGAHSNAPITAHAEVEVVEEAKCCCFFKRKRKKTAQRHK
In short: as §1

CLK2(h) = CLK2(h) (Homo sapiens, UniProt P49760); experiment: Kinase Profiling Assay; assay type: biochemical; settings: peptide 100 μM
Sequence of CLK2(h) (P49760 whole entry): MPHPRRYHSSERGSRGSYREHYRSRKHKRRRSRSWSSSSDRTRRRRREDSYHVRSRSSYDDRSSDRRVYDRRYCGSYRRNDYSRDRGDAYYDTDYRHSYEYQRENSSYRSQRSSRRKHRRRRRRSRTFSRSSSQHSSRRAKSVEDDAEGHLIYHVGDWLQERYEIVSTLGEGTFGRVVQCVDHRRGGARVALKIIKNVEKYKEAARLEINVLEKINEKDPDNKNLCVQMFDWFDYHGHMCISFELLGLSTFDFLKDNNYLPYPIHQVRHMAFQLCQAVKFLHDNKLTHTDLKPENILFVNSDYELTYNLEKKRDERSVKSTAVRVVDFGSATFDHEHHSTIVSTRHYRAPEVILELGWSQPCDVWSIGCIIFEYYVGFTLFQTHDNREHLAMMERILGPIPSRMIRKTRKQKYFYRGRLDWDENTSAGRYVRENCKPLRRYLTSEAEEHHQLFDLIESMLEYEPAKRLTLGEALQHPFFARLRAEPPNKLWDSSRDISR
In short: as §1

Plk1(h) = Plk1(h) (Homo sapiens, UniProt P53350); experiment: Kinase Profiling Assay; assay type: biochemical; settings: peptide 100 μM
Sequence of Plk1(h) (P53350 whole entry): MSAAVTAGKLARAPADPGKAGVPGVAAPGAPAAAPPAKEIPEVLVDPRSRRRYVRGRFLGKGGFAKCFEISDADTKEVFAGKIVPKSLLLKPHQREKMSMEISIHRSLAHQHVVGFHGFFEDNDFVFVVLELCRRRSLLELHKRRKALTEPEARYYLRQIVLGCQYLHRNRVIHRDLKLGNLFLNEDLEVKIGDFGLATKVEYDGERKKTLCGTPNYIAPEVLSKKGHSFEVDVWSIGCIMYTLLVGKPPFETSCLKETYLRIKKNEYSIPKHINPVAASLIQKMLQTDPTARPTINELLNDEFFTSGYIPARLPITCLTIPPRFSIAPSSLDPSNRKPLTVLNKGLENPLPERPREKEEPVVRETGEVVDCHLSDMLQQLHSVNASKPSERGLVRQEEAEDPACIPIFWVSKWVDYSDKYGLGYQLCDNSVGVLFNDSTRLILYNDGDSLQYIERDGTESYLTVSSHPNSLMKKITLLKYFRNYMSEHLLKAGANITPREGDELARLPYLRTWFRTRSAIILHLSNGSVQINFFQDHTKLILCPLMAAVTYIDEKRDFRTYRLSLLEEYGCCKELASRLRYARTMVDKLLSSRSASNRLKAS
In short: as §1

Sequence of CK1γ2(h) (P78368 whole entry): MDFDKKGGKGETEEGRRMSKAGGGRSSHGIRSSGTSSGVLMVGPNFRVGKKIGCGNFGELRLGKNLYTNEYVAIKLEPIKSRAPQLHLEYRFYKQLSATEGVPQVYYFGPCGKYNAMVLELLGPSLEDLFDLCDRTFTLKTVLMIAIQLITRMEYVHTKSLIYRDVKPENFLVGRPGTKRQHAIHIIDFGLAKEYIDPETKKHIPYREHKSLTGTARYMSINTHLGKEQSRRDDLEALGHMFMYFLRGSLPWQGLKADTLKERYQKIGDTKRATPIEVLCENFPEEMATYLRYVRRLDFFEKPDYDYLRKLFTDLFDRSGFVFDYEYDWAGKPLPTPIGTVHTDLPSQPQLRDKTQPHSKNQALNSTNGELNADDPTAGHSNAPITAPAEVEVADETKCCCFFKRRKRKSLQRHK

FAKLAARLYRKALARQLGVAA [MMI-0300]
% activity (CK1γ2(h)): 123%

HRRIKAWLKKIKALARQLGVAA (Mammal) [MMI-0500]
% activity (c-RAF(h)): 19%

KAFAKLAARLYRKALARQLGVAA [MMI-0400]
% activity (PAK6(h)): 100%

YARAAARQARAKALARQLGVAA [MMI-0100]
% activity (FGFR2(N549H)(h)): 95% | collagen levels in the lung (Masson's blue trichrome), dose-response [1]: a decrease in collagen levels | collagen accumulation in the lungs (Masson's Trichrome staining) ([1]; intraperitoneally): reduced collagen accumulation | development of fibrotic loci formation (H&E staining) ([1]; intraperitoneally): significantly reduced | total collagen deposition (from hydroxyproline) vs bleomycin control ([1]; nebulized): significantly decreased | total collagen deposition (from hydroxyproline) vs bleomycin control ([1]; systemic (IP)): significantly decreased | collagen accumulation in the lungs (Masson's Trichrome staining) ([1]; via nebulization): reduced collagen accumulation | development of fibrotic loci formation (H&E staining) ([1]; via nebulization): significantly reduced | toxicity (splenic T cell response to α-CD3) (splenic T cells; 50 μg/kg/day): no toxicity | systemic distribution (splenic T cells; nebulized delivery, inferred from lack of splenic T cell response): little systemic distribution | level of α-SMA in lungs vs untreated bleomycin-injured lungs [2]: significantly attenuated | protein level of α-smooth muscle actin (α-SMA) [3]: decreases | invasive capacity of IPF fibroblasts [4]: able to inhibit | hyaluronan (HA) production [5]: reduced

YARAAARQARAKALNRQLGVA (Mammal) [MMI-0200]
% activity (CK1γ1(h)): 98% | % activity (CLK2(h)): 97% | % activity (Plk1(h)): 128% | collagen levels in the lung (Masson's blue trichrome), dose-response [1]: did not reduce, but rather increased | protein level of α-smooth muscle actin (α-SMA) [3]: no changes
